In patent publication US7338950B2, “Amide compounds as ion channel ligands and uses thereof” (Renovis, Inc., priority 2003, dated 2008):

system: VR1 receptor (293 cells expressing capsaicin-insensitive VR1 receptor variants); experiment: High throughput screening of VR1 antagonists using a calcium imaging assay (Fura2, pH 5.1 stimulus); conditions: 1 uM compound; inhibition of calcium ion influx;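 note: Fura2 ratiometric fluorescence read every 4 s over 3 min, response taken as peak ratio minus baseline before pre-treatment, compound pre-treatment preceding acid challenge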
Excerpt: A dual wavelength ratiometric dye, Fura2, was used as an indicator of relative levels of calcium ions in a 96 well format using a bench top scanning fluorometer with integrated fluidics and temperature control (Flex Station, Molecular Devices).
A dual wavelength ratiometric dye, Fura2, was used as an indicator of relative levels of [Ca2+] in a 96 well format using a bench top scanning fluorometer with integrated fluidics and temperature control (Flex Station, Molecular Devices).
293 cells were grown on PDL coated 96-well black-walled plates, in the presence of a DMEM medium containing 5% Penstrep, 5% Glutamax, 200 ug/mL Hygromycin, 5 μg/mL Blasticide and 10% heat inactivated FBS. Prior to assay, the cells were loaded with 5 μg/mL Fura2 in normal saline solution at 37° C. for 40 minutes. Cells were then washed with normal saline to remove the dye.
The assay consists of two stages; a pre-treatment phase followed by a treatment phase.
50 μl of a compound solution was added to the cells (Pre-treatment). Immediately following, 50 μl of the test compound in a saline solution at pH 5.1 was added. […] Changes in wavelength measurements were made throughout the course of the experiment in 4 second intervals over a period of 3 minutes. Responses were measured as peak fluorescence ratio after test compound addition minus baseline fluorescence ratio prior to pre-treatment and were calculated using SoftMaxPro softwareData were expressed as percentage inhibition calculated using Excel as follows:

| SMILES | % Inhibition @ 1 uM |
| --- | --- |
| O=C(Nc1ccc2c(c1)OCCO2)c1ccc(-c2ncccc2Cl)cc1 [Compound 1018] | ++ (compound exhibited 25-50% inhibition of calcium ion influx induced by capsaicin stimulation) |
| COc1cccc(NC(=O)c2ccc(-c3ncccc3Cl)cc2)c1 [Compound 1019] | + (compound exhibited 0-25% inhibition of calcium ion influx induced by capsaicin stimulation) |
| O=C(Nc1ccccc1)c1ccc(-c2ncccc2Cl)cc1 [Compound 1020] | + (compound exhibited 0-25% inhibition of calcium ion influx induced by capsaicin stimulation) |
| O=C(Nc1ccc2[nH]ccc2c1)c1ccc(-c2ncccc2Cl)cc1 [Compound 1021] | ++++ (compound exhibited 75% or greater inhibition of calcium ion influx induced by capsaicin stimulation) |
| COc1ccc(NC(=O)c2ccc(-c3ncccc3Cl)cc2)cc1 [Compound 1022] | ++ (compound exhibited 25-50% inhibition of calcium ion influx induced by capsaicin stimulation) |
| O=C(Nc1ccncc1)c1ccc(-c2ncccc2Cl)cc1 [Compound 1024] | ++++ (compound exhibited 75% or greater inhibition of calcium ion influx induced by capsaicin stimulation) |
| O=C(Nc1cccnc1)c1ccc(-c2ncccc2Cl)cc1 [Compound 1025] | ++++ (compound exhibited 75% or greater inhibition of calcium ion influx induced by capsaicin stimulation) |
| O=C(Nc1cc[nH]n1)c1ccc(-c2ncccc2Cl)cc1 [Compound 1026] | + (compound exhibited 0-25% inhibition of calcium ion influx induced by capsaicin stimulation) |
| N#Cc1ccccc1NC(=O)c1ccc(-c2ncccc2Cl)cc1 [Compound 1028] | + (compound exhibited 0-25% inhibition of calcium ion influx induced by capsaicin stimulation) |
| O=C(Nc1cccc(Cl)c1)c1ccc(-c2ncccc2Cl)cc1 [Compound 1029] | + (compound exhibited 0-25% inhibition of calcium ion influx induced by capsaicin stimulation) |
| COc1ccccc1NC(=O)c1ccc(-c2ncccc2Cl)cc1 [Compound 1030] | ++++ (compound exhibited 75% or greater inhibition of calcium ion influx induced by capsaicin stimulation) |
| O=C(Nc1ccccc1Cl)c1ccc(-c2ncccc2Cl)cc1 [Compound 1032] | + (compound exhibited 0-25% inhibition of calcium ion influx induced by capsaicin stimulation) |
| O=C(Nc1ccc(Cl)cc1Cl)c1ccc(-c2ncccc2Cl)cc1 [Compound 1033] | + (compound exhibited 0-25% inhibition of calcium ion influx induced by capsaicin stimulation) |
| COc1ccc(NC(=O)c2ccc(-c3ncccc3Cl)cc2)cc1Cl [Compound 1034] | + (compound exhibited 0-25% inhibition of calcium ion influx induced by capsaicin stimulation) |
| O=C(Nc1ccc(C(F)(F)F)cc1)c1ccc(-c2ncccc2Cl)cc1 [Compound 1035] | ++++ (compound exhibited 75% or greater inhibition of calcium ion influx induced by capsaicin stimulation) |
| O=C(Nc1ccc(Cl)c(C(F)(F)F)c1)c1ccc(-c2ncccc2Cl)cc1 [Compound 1037] | +++ (compound exhibited 50-75% inhibition of calcium ion influx induced by capsaicin stimulation) |
| O=C(Nc1cccc(Br)c1)c1ccc(-c2ncccc2Cl)cc1 [Compound 1038] | + (compound exhibited 0-25% inhibition of calcium ion influx induced by capsaicin stimulation) |
| N#Cc1cccc(NC(=O)c2ccc(-c3ncccc3Cl)cc2)c1 [Compound 1039] | + (compound exhibited 0-25% inhibition of calcium ion influx induced by capsaicin stimulation) |
| O=C(Nc1ccccc1CCO)c1ccc(-c2ncccc2Cl)cc1 [Compound 1040] | +++ (compound exhibited 50-75% inhibition of calcium ion influx induced by capsaicin stimulation) |
| CC(C)(C)c1ccc(NC(=O)c2ccc(-c3ncccc3Cl)cc2)cc1 [Compound 1041] | ++++ (compound exhibited 75% or greater inhibition of calcium ion influx induced by capsaicin stimulation) |
| CC(C)c1ccc(NC(=O)c2ccc(-c3ncccc3Cl)cc2)cc1 [Compound 1042] | ++++ (compound exhibited 75% or greater inhibition of calcium ion influx induced by capsaicin stimulation) |
| CCCCc1ccc(NC(=O)c2ccc(-c3ncccc3Cl)cc2)cc1 [Compound 1043] | ++ (compound exhibited 25-50% inhibition of calcium ion influx induced by capsaicin stimulation) |
| O=C(Nc1ccc(C2CCCCC2)cc1)c1ccc(-c2ncccc2Cl)cc1 [Compound 1044] | ++++ (compound exhibited 75% or greater inhibition of calcium ion influx induced by capsaicin stimulation) |
| COc1cc(NC(=O)c2ccc(-c3ncccc3Cl)cc2)cc(C(F)(F)F)c1 [Compound 1045] | ++ (compound exhibited 25-50% inhibition of calcium ion influx induced by capsaicin stimulation) |
| O=C(Nc1cccnc1Cl)c1ccc(-c2ncccc2Cl)cc1 [Compound 1047] | ++ (compound exhibited 25-50% inhibition of calcium ion influx induced by capsaicin stimulation) |
| O=C(Nc1ccc(Cl)nc1)c1ccc(-c2ncccc2Cl)cc1 [Compound 1048] | + (compound exhibited 0-25% inhibition of calcium ion influx induced by capsaicin stimulation) |

| SMILES | % Inhibition @ 1 uM |
| --- | --- |
| COc1ccc(NC(=O)c2ccc(-c3ncccc3Cl)cc2)cn1 [Compound 1049] | + (compound exhibited 0-25% inhibition of calcium ion influx induced by capsaicin stimulation) |
| O=C(Nc1ccnc(Cl)c1)c1ccc(-c2ncccc2Cl)cc1 [Compound 1050] | ++++ (compound exhibited 75% or greater inhibition of calcium ion influx induced by capsaicin stimulation) |
| O=C(Nc1ccc2c(c1)OCO2)c1ccc(-c2ncccc2Cl)cc1 [Compound 1051] | + (compound exhibited 0-25% inhibition of calcium ion influx induced by capsaicin stimulation) |
| Cc1cc(NC(=O)c2ccc(-c3ncccc3Cl)cc2)nc(C)n1 [Compound 1052] | + (compound exhibited 0-25% inhibition of calcium ion influx induced by capsaicin stimulation) |
| O=C(Nc1ccc2c(c1)Cc1ccccc1-2)c1ccc(-c2ncccc2Cl)cc1 [Compound 1053] | ++ (compound exhibited 25-50% inhibition of calcium ion influx induced by capsaicin stimulation) |
| Cc1cc(C)nc(NC(=O)c2ccc(-c3ncccc3Cl)cc2)c1 [Compound 1054] | + (compound exhibited 0-25% inhibition of calcium ion influx induced by capsaicin stimulation) |
| O=C(Nc1nccs1)c1ccc(-c2ncccc2Cl)cc1 [Compound 1055] | + (compound exhibited 0-25% inhibition of calcium ion influx induced by capsaicin stimulation) |
| CC(C)(CO)NC(=O)c1ccc(-c2ncccc2Cl)cc1 [Compound 1058] | + (compound exhibited 0-25% inhibition of calcium ion influx induced by capsaicin stimulation) |
| CN(C)c1cccc(NC(=O)c2ccc(-c3ncccc3Cl)cc2)c1 [Compound 1060] | ++++ (compound exhibited 75% or greater inhibition of calcium ion influx induced by capsaicin stimulation) |
| CCN(CC)c1ccc(NC(=O)c2ccc(-c3ncccc3Cl)cc2)cc1 [Compound 1061] | ++++ (compound exhibited 75% or greater inhibition of calcium ion influx induced by capsaicin stimulation) |
| O=C(Nc1ccc(N2CCOCC2)cc1)c1ccc(-c2ncccc2Cl)cc1 [Compound 1062] | + (compound exhibited 0-25% inhibition of calcium ion influx induced by capsaicin stimulation) |
| Cc1cccnc1NC(=O)c1ccc(-c2ncccc2Cl)cc1 [Compound 1065] | ++ (compound exhibited 25-50% inhibition of calcium ion influx induced by capsaicin stimulation) |
| O=C(Nc1ccc(Br)cn1)c1ccc(-c2ncccc2Cl)cc1 [Compound 1066] | ++ (compound exhibited 25-50% inhibition of calcium ion influx induced by capsaicin stimulation) |
| O=C(Nc1ccc(C(F)(F)F)cn1)c1ccc(-c2ncccc2Cl)cc1 [Compound 1067] | ++ (compound exhibited 25-50% inhibition of calcium ion influx induced by capsaicin stimulation) |
| CCC(C)(C)NC(=O)c1ccc(-c2ncccc2Cl)cc1 [Compound 1070] | + (compound exhibited 0-25% inhibition of calcium ion influx induced by capsaicin stimulation) |
| O=C(Nc1ccc2ncccc2c1)c1ccc(-c2ncccc2Cl)cc1 [Compound 1071] | + (compound exhibited 0-25% inhibition of calcium ion influx induced by capsaicin stimulation) |
| CCC1c2ccccc2-c2cc(NC(=O)c3ccc(-c4ncccc4Cl)cc3)ccc21 (stereo not shown) [Compound 1072] | ++ (compound exhibited 25-50% inhibition of calcium ion influx induced by capsaicin stimulation) |
| O=C(Nc1ccc([N+](=O)[O-])cc1)c1ccc(-c2ncccc2Cl)cc1 [Compound 1073] | ++++ (compound exhibited 75% or greater inhibition of calcium ion influx induced by capsaicin stimulation) |
| O=C(Nc1ccc2ccccc2c1)c1ccc(-c2ncccc2Cl)cc1 [Compound 1074] | ++++ (compound exhibited 75% or greater inhibition of calcium ion influx induced by capsaicin stimulation) |
| O=C(Nc1ccncc1)c1ccc(-c2ncccc2Cl)cc1F [Compound 1079] | + (compound exhibited 0-25% inhibition of calcium ion influx induced by capsaicin stimulation) |
| O=C(Nc1cccnc1)c1ccc(-c2ncccc2Cl)cc1F [Compound 1080] | + (compound exhibited 0-25% inhibition of calcium ion influx induced by capsaicin stimulation) |
| CC(C)(NC(=O)c1ccc(-c2ncccc2Cl)cc1F)c1ccccc1 [Compound 1083] | + (compound exhibited 0-25% inhibition of calcium ion influx induced by capsaicin stimulation) |
| O=C(Nc1ccccc1O)c1ccc(-c2ncccc2Cl)cc1F [Compound 1084] | + (compound exhibited 0-25% inhibition of calcium ion influx induced by capsaicin stimulation) |
| CN(C)c1cccc(NC(=O)c2ccc(-c3ncccc3Cl)cc2F)c1 [Compound 1086] | + (compound exhibited 0-25% inhibition of calcium ion influx induced by capsaicin stimulation) |
| O=C(Nc1cccc(Cl)c1)c1ccc(-c2ncccc2Cl)cc1F [Compound 1088] | + (compound exhibited 0-25% inhibition of calcium ion influx induced by capsaicin stimulation) |
| COc1cccc(NC(=O)c2ccc(-c3ncccc3Cl)cc2F)c1 [Compound 1091] | + (compound exhibited 0-25% inhibition of calcium ion influx induced by capsaicin stimulation) |
